Assay results as given in PMC11200585, “Prospects for Prostate Cancer Chemotherapy: Cytotoxic Evaluation and Mechanistic Insights of Quinolinequinones with ADME/PK Profile” (Biomedicines, 2024).

What was measured:
DU-145 cells [1] = experiment: Cell cycle assay (flow cytometry, PI); format: cell-based, human; conditions: 24 h, highest concentrations
Protocol: Cells were subjected to AQQ1 and DOXO treatments as previously described for apoptosis necrosis analysis. For cell cycle analysis, a cell population of 1 × 10^6 was collected, centrifuged, and the supernatant was removed. The resulting cellular pellet was re-suspended in 70% cold ethanol in PBS. Subsequently, the cells underwent a single PBS wash, followed by incubation in PBS containing […] PI (Sigma-Aldrich, St. Louis, MO, USA) and 2 mg/mL DNase-free RNase-A (Affymetrix, Inc., Santa Barbara, CA, USA) for 30 min at room temperature in a light-protected environment. Analysis was performed using the BD FACS Calibur Flow Cytometry System, and the BD CellQuest Pro Software software (version 5.1, Becton Dickinson, USA) was employed to determine cell cycle phase distributions in comparison to the control group.

DU-145 cells [2] = experiment: Oxidative stress: intracellular ROS (DCFDA, flow cytometry); format: cell-based, human; conditions: 1, 2.5, 5 µM, 24 h
Protocol: DU-145 cells were initially seeded at a density of 1 × 10^6 cells per well in 6-well plates. Cells were subjected to AQQ1 treatments as described earlier. After an incubation period, the cells were treated with varying concentrations of AQQ1 (1, 2.5, and 5 µM) for 24 h. ROS analysis was carried out using the DCFDA oxidation method according to Eruslanov and Kusmartsev with some modifications. For positive control, the cells were exposed to 100 µM H2O2 for 30 min. Then, the medium was discarded, 20 µM DCDFA (Sigma-Aldrich, USA) in culture medium was added to the wells, and plates were incubated for 15 min in the dark. The cells were analysed with NovoCyte (Agilent, Palo Alto, CA, USA) flow cytometry using NovoExpress version 1.6.2 software (Agilent, USA).

[3] = Log P (experimental, n-octanol); format: physicochemical
[4] = In vitro metabolic stability; format: in vitro ADME; conditions: for % Metabolism in 30 min: 0.5 µM, 0.5 mg/mL protein; for half-life at 0.5 µM / microsomal CLint at 0.5 µM: pH 7.4
Protocol: S2. ADME and PK Profiling
S2.1. In vitro Metabolic Stability Study […]
metabolic stability of AQQ1 and AQQ2. A final protein (liver microsomal) concentration of 0.5 mg/mL and final test substance (AQQ1 and AQQ2) concentration of 0.5 µM were used for the study. To the respective microsomes at a volume of 12.5 µL in the well, 2.5 µL of test substance ([…] in acetonitrile: dimethyl sulfoxide, 96:4) in the presence and absence of NADPH (50 µL, 10 mM) were added and the final volume made up to 500 µL with sodium phosphate buffer (50 mM, pH 7.4). The one without NADPH served as control. Sampling (50 µL) were done at the following time points: 0, 5, 10, 15, and 30 min for sample and at 0 and 30 min for control.
Acetonitrile (150 µL) was used as quenching solvent, internal standard (Rolipram) was added, vortexed/centrifuged and the aliquot from the supernatant was analyzed using LC-MS/MS. All the experiments were performed in duplicate.

[5] = In vivo bioavailability / pharmacokinetic study IV and PO; parameters: species or system male Sprague-Dawley rats; conditions: rat; for AUC(0-inf) / AUC(0-t) / C0 / MRT last / Vd / clearance / half-life / Cmax / Tmax: male, Sprague-Dawley, whole blood; for Tmax: median
Protocol: Using the validated Phoenix® WinNonlin® 8.3 NCA tool Version 8 or higher (Certara L.P.), USA, pharmacokinetic parameters were computed. As appropriate, Cmax, Tmax, and exposures (AUCinfinity and AUClast) were calculated. Furthermore, pharmacokinetic characteristics such as distribution volume (Vd), […] (CL), elimination half-life (T1/2), and parenteral route like (C0) were evaluated. Using dose-normalized non-intravenous exposure versus dose-normalized intravenous exposure, oral bioavailability (F%) was computed (Table 5).
S2.2. In vivo Bioavailability Study of AQQ1 and AQQ2 in Male Sprague-Dawley Rats Sprague-Dawley rats (HyLasco Biotechnology (India) Pvt. Ltd., a subsidiary of Charles River from the US) of 8-12 weeks of age (at the time of treatment), weighing between 220 and 320 g, […]
Housing: Animals were housed in polysulfonate cages in a typical research laboratory environment at 25 ± 3°C and 50%-70% relative humidity with approximately 12 h light and dark cycles maintained with an enrichment device. During the study, the animals had access to a rat maintenance diet (Altromin Spezialfutter GmbH, Germany) and purified water (UV-treated, […]
Animal experiments were conducted in accordance with the guidelines of the Committee for the Purpose of Control and Supervision of Experiments on Animals (CPCSEA), Ministry of […], Government of India, and approved by the Institutional Animal Ethics Co m m i tt e e . […] AQQ1 a n d AQQ2 in NMP (10%) + PBS (pH 7.4) qs was administered intravenously at a dose of 1 mg/kg bw (10 mL/kg). AQQ1 and AQQ2 in NMP (10%) + Cremophor EL (5%) + PEG400 (30%) + PG (20%) + PBS (pH 7.4) qs was administered PO at a dose of 5 mg/kg bw (10 mL/kg). The animal weight on the day of dosing was used to calculate the required volume of the formulation and administered to the rats.
After dosing, blood samples (~0.250 mL) were collected from the jugular vein at the following time points: 0.083 (IV only), 0.25, 0.5, 1, 2, 4, 6, 8, and 24 h using a serial sampling design (equal volumes of heparinized saline were replaced after each sample collection). The samples were collected in pre-labeled microcentrifuge tubes containing K2EDTA (20 μL of 200 mM solution […]
per mL of blood) as an anticoagulant. The blood samples were stored at -60°C until bioanalysis using the fit-for-purpose LC-MS/MS method. Pharmacokinetic parameters were calculated using the non-compartmental analysis (NCA) tool of the validated Phoenix® WinNonlin® 8.3.
Group Treatment/Route Dose (mg/kg) Dose volume (mL/kg) Stregth

Row | SMILES | logP [3] | % Metabolism in 30 min ([4]; Human liver microsomes) [%] | % Metabolism in 30 min ([4]; Mouse liver microsomes) [%] | half-life at 0.5 µM ([4]; Human liver microsomes) [h] | microsomal CLint at 0.5 µM ([4]; Human liver microsomes) [µL/min/mg] | half-life at 0.5 µM ([4]; Mouse liver microsomes) [h] | microsomal CLint at 0.5 µM ([4]; Mouse liver microsomes) [µL/min/mg] | AUC(0-inf) ([5]; IV 1 mg/kg) [ng·h/mL] | AUC(0-t) ([5]; IV 1 mg/kg) [ng·h/mL] | C0 ([5]; IV 1 mg/kg) [ng/mL] | MRT last ([5]; IV 1 mg/kg) [h] | Vd ([5]; IV 1 mg/kg) [L/kg] | clearance ([5]; IV 1 mg/kg) [mL/min/kg] | half-life ([5]; IV 1 mg/kg) [h] | AUC(0-inf) ([5]; PO 5 mg/kg) [ng·h/mL] | AUC(0-t) ([5]; PO 5 mg/kg) [ng·h/mL] | Cmax ([5]; PO 5 mg/kg) [ng/mL] | MRT last ([5]; PO 5 mg/kg) [h] | half-life ([5]; PO 5 mg/kg) [h] | Tmax ([5]; PO 5 mg/kg) [h] | also measured
1 | COc1ccccc1NC1=C(Cl)C(=O)c2nc(C)ccc2C1=O [AQQ1] | 1.85 | 39.5 | 63 | > 0.5 | 39 | 0.342 | 68.5 | 115 ± 45.7 | 77.5 ± 9.81 | 90.8 ± 71.3 | 3.77 ± 0.279 | 90.3 ± 40 | 161 ± 62.9 | 9.35 ± 8.75 | 4000 ± 179 | 3810 ± 111 | 435 ± 18.1 | 7.47 ± 0.367 | 5.22 ± 0.843 | 0.5 | population of cells in the G0/G1 phase (DU-145 cells [1]): significantly increased the population of cells in the G0/G1 phase; intracellular ROS levels (DU-145 cells [2]): significantly increased ROS levels dose-dependently; plasma clearance relative to normal hepatic blood flow of rats ([5]; IV 1 mg/kg): approximately 2.93 fold
2 | CCOc1ccccc1NC1=C(Cl)C(=O)c2nc(C)ccc2C1=O [AQQ2] | 1.77 | 47 | 96.5 | 0.442 | 52 | 0.0917 | 249 | 110 ± 18.1 | 77 ± 21 | 23.2 ± 12.8 | 6.84 ± 1.84 | 147 ± 9.71 | 154 ± 26.9 | 12.8 ± 2.95 | 2370 ± 375 | 2300 ± 416 | 282 ± 79.4 | 6.61 ± 0.787 | 4.72 ± 1.16 | 1 | plasma clearance relative to normal hepatic blood flow of rats ([5]; IV 1 mg/kg): approximately 2.8 fold; volume of distribution relative to 0.7 L/kg total body fluids ([5]; IV 1 mg/kg): approximately 210 fold
